This is an account of results in patent publication US20120058499A1, “Bioluminescent Detection of Protease Activity” (priority 2010, published 2012).

In one assay the target is USP14 (Homo sapiens, UniProt P54578). In words: Platform comparison of DUB substrates, signal to background. Format: biochemical. The note with it: DUB 10 nM; signal at 30 minutes; Ub-LUC 100 nM, DUB-Glo substrate 20 μM, Ub-AMC/Ub-rho 250 nM. Here is the method: (§1) For Ub-AMC and Ub-Rhodamine110, all enzymes were diluted into 50 mM Tris, pH 8.0, 5 mM DTT, 0.05% CHAPS to a final concentration of 10 nM. […] Either Ub-AMC or Ub-Rhodamine110 (final reaction concentration equal to 250 nM) were diluted into 50 mM Tris, pH 8.0, 5 mM DTT, 0.05% (w/v) CHAPS. […] For Ub-Rhodamine110, fluorescence was monitored with filters corresponding to excitation at 485 nm and emission at 531 nm.

For a further assay, the target named is T1, UCHL5 (Homo sapiens, UniProt Q9Y5K5).
T1 sequence (Q9Y5K5 1-329): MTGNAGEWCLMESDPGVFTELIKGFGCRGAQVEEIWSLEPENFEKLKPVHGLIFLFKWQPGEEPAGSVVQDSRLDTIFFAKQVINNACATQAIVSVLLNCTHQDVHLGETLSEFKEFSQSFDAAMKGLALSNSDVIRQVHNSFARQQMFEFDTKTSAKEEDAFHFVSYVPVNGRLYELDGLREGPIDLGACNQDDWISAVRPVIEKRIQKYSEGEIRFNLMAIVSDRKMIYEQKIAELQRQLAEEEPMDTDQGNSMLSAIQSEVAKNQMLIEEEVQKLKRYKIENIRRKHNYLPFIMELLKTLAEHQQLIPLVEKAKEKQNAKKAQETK
Described as above. Format: biochemical. The note with it: DUB 10 nM; signal at 30 minutes; Ub-LUC 100 nM, DUB-Glo substrate 20 μM, Ub-AMC/Ub-rho 250 nM. Here is the method: as §1

In another assay the target is T2, Ataxin3-like (Homo sapiens, UniProt Q9H3M9).
T2 sequence (Q9H3M9 1-355): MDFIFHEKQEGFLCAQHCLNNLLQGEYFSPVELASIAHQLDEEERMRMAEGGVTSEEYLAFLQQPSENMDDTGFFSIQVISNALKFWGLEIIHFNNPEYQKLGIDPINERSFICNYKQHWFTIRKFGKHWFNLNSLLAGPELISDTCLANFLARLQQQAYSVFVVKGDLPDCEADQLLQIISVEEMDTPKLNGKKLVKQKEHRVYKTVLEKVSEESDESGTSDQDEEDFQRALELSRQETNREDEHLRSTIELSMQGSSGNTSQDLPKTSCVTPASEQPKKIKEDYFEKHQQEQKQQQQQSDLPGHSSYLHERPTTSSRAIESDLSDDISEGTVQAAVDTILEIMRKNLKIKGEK
The description is as above. Format: biochemical. The note with it: DUB 10 nM; signal at 30 minutes; Ub-LUC 100 nM, DUB-Glo substrate 20 μM, Ub-AMC/Ub-rho 250 nM. Here is the method: as §1

The target in a further assay is Ataxin3 (Homo sapiens, UniProt P54252). The description is as above. Format: biochemical. The note with it: DUB 10 nM; signal at 30 minutes; Ub-LUC 100 nM, DUB-Glo substrate 20 μM, Ub-AMC/Ub-rho 250 nM. The protocol: as §1
A further assay addresses SENP6 (Homo sapiens, UniProt Q9GZR1). The note with it: enzyme 200 pM; 30 minutes; FIG. 6. The protocol:
(§2) The hSUMO2-amino-luciferin substrate was compared to the Z-Arg-Leu-Arg-Gly-Gly (SEQ ID NO: 1)-amino-luciferin substrate (Promega DUB-Glo™ substrate) to determine the specificity and limit of detection of the activities of six (6) different isopeptidases (USP34, USP7, USP8, SENP1, SENP2, and SENP6). For all enzymes, these two substrates were tested in parallel using the DUB-Glo™ assay system (Promega) according to the manufacturer's instructions. All enzymes were diluted into 50 mM HEPES, pH 7.5, 10 mM DTT, 0.1% Prionex® (Sigma-Aldrich). For testing Z-Arg-Leu-Arg-Gly-Gly (SEQ ID NO: 1)-amino-luciferin, final isopeptidase concentrations for all enzymes were equal to approximately 70 pM to 50 nM. For testing hSUMO2-amino-luciferin, final isopeptidase concentrations for all enzymes were equal to approximately 70 pM to 50 nM. […] The signal in relative luminescence units (RLUs) was measured at 30 minutes from reaction assembly on an EnVision™ multi-label plate reader (Perkin Elmer). The signal to background ratio (S/B) was calculated as (maximum signal/(signal in absence of enzyme) plus or minus the corrected standard deviation of triplicate measurements.

The target of another assay is SENP2 (Homo sapiens, UniProt Q9HC62). The following applies: enzyme 200 pM; 30 minutes; FIG. 6. The protocol: as §2
Sequence of SENP2 (Q9HC62 whole entry, species assumed): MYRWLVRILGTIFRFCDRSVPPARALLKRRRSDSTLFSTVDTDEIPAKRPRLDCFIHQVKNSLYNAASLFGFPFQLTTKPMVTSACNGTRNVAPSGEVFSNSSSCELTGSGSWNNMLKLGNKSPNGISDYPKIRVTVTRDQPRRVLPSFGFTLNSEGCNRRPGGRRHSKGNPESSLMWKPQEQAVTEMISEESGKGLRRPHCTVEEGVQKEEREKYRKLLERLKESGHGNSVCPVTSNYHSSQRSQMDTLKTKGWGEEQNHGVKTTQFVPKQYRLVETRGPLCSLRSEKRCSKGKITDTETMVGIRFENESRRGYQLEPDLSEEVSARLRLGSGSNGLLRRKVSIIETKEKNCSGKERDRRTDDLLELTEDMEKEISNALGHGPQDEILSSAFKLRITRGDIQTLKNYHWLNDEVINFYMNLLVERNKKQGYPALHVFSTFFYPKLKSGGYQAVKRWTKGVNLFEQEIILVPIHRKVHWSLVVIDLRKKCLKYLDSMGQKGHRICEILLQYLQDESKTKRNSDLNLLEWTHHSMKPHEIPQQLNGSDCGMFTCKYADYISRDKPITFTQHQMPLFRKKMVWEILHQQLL

Sequence of Ataxin3 (P54252 whole entry, species assumed): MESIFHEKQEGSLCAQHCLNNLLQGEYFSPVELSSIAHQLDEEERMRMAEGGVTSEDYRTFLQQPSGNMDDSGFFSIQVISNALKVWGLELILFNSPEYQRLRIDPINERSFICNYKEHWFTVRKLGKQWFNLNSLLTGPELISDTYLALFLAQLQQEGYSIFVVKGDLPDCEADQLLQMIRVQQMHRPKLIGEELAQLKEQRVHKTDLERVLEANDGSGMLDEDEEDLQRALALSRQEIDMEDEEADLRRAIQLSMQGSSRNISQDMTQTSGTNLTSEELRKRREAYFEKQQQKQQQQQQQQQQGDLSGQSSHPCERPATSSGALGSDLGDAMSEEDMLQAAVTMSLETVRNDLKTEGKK
Sequence of USP14 (P54578 whole entry, species assumed): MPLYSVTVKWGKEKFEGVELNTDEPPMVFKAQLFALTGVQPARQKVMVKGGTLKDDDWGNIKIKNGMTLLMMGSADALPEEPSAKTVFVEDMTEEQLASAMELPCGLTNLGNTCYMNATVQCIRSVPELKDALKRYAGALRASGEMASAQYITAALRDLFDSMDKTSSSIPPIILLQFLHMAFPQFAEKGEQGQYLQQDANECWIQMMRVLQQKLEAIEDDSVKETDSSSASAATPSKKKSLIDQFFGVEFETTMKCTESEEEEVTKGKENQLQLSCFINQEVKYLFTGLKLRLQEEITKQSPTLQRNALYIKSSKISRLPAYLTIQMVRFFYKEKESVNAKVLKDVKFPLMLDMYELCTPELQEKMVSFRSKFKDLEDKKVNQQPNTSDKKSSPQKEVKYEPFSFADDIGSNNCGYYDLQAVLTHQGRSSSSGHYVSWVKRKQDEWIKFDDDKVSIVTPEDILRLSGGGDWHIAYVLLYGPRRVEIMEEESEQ
Sequence of SENP6 (Q9GZR1 whole entry, species assumed): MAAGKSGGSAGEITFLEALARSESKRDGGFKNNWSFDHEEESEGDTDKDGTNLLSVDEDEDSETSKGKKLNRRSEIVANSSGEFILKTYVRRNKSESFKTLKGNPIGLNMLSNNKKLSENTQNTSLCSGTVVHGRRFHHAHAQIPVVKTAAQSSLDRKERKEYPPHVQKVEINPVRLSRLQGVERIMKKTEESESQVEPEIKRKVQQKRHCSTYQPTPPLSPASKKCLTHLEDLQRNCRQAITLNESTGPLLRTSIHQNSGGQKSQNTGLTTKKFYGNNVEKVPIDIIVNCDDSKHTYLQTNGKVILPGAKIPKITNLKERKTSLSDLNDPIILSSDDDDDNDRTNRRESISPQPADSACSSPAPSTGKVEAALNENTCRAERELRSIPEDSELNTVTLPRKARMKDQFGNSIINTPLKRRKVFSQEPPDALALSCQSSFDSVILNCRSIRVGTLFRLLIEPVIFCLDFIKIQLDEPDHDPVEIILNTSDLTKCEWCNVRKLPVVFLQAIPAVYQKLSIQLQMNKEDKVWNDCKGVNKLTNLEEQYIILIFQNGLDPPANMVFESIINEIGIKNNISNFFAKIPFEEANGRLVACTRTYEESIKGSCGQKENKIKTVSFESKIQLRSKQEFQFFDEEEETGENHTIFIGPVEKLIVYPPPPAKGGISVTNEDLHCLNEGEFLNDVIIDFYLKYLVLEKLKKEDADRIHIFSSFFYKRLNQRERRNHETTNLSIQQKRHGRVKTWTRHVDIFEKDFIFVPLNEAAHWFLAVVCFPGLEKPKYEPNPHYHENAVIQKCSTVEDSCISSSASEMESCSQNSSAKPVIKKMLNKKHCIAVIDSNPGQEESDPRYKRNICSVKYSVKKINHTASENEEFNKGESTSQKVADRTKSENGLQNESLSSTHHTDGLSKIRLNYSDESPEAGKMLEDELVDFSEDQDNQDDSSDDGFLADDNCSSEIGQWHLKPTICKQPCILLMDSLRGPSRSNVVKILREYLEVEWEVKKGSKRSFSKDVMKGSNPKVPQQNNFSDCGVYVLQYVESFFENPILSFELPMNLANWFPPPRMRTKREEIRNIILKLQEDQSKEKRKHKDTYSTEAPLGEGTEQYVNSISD

Consider Ub(1-76)-aminoluciferin [Ub-LUC], for which the “Signal to Background value” at USP14 amounted to 6.0; on UCHL5, 1700; at Ataxin3-like, 120; on Ataxin3, 4.0.

Regarding “Z-Arg-Leu-Arg-Gly-Gly (SEQ ID NO: 1)-amino-luciferin [DUB-glo ™]”, the “Signal to Background value” on USP14 stood at 1.6; on UCHL5, 1.4; at Ataxin3-like, 1.5; at Ataxin3, 1.3. Further, the “signal (RLU, S/B)” value at SENP6 and at SENP2 was “gave signals” in each case.
